Structures are written as SMILES. “Also recorded” adds a separate entry of the source. Where two headings read alike, the source gives them in different places.

Data set [1] has as its system Salmonella typhimurium strains TA98, TA100, TA1535, and TA1537. Description: Plate incorporation mutation assay, S. typhimurium. To be noted: with and without rat liver S-9; up to 5000 mg/plate, 5000 μg/plate. As for the experimental part: (§1) L-dC was tested for its potential to cause mutation at the histidine operon of Salmonella typhimurium strains TA98, TA100, TA1535, and TA1537 and at the tryptophan opeton of Escherichia coli strain WP2uvrA. L-dC at concentrations of […] plus positive and negative controls were tested. […] After incubation for approximately 68 hours, L-dC and controls were evaluated for the number of revertants per plate and integrity of the background microcolony lawn.

For data set [2], the system named is MDCK, canine kidney epithelial cells.
For data set [3], the system named is WHV. Put plainly: Woodchuck model of chronic hepatitis B infection, 12 weeks oral. To be noted: 1 mg/kg/day orally, woodchucks. As for the experimental part: WHV DNA and body weight were measured on Days 0, 1, 3, 7, 14, 21, 28, 42, 56, and 84 as well as on post-treatment Days 7, 14, 21, 28, 42, 56, 70, and 84. WHV DNA levels were determined by quantitative PCR. Appropriate samples for hematology, serum chemistries, WHV serology, and liver biopsy were collected pretreatment and on Day 84.

The conditions of data set [4]: rat. The procedure: The drug was detected and the concentration determined in plasma and urine using a reverse-phase HPLC technique. The data were analyzed by a non-modeling mathematical method and the AUCs derived by the linear trapezoidal rule.
Data set [5] concerns cultured CHO cells. Description: Chromosomal aberration assay. The data set is classed as cell-based, Chinese hamster. To be noted: with and without metabolic activation, 5000 μg/mL.
The test system of data set [6] is HCMV. Put plainly: Antiviral panel: HCMV (HFF). The data set is classed as cell-based.
Data set [7] relates to Daudi, Burkitt's B-cell lymphoma.
In data set [8] the test system is bone marrow cells. Put plainly: Mouse micronucleus assay. The data set is classed as in vivo. Particulars: single oral dose up to 2000 mg/kg, male and female mice. The procedure:
L-dC was tested for its potential to induce micronucleated polychromatic erythrocytes (MPCE) in the bone marrow cells of male and female mice. L-dC at concentrations of 500, 1000, and 2000 mg/kg and positive and negative controls were tested. Study […] as a single dose. Two harvests approximately 24 and 48 hours after L-dC or negative control administration were performed, and a single harvest approximately 24 hours after positive control administration was performed. Five male and five female mice per dose group per harvest time were used. The percentage of polychromatic erythrocytes (PCE) and MPCE frequency were determined for each timepoint.

For data set [9], the system named is Escherichia coli strain WP2uvrA. Description: Plate incorporation mutation assay, E. coli. To be noted: with and without rat liver S-9; up to 5000 mg/plate, 5000 μg/plate. The procedure: as §1
Data set [10] deals with KB, human nasopharyngeal carcinoma.

For `Nc1ccn([C@@H]2C[C@@H](O)[C@H](CO)O2)c(=O)n1` [L-dC, 2′-deoxy-β-L-cytidine], the mutagenicity entry in [1] and in [9] was “no evidence of mutagenicity; also recorded: not mutagenic” each time. Also, the CC50 in data set [2] is above 100 µM; in data set [7], above 50 µg/mL; in [10], above 100 µM. The “end-of-treatment liver biopsy histomorphology” value in data set [3] was “no histomorphological evidence of fatty changes; also recorded: no evidence of fatty change”. In addition, the “AUC0.25→8 (table head AUC0-25-28)” value in data set [4] (L-dC 10 mg/kg IV) stood at 30100 µM·h; in data set [4] (L-dC 10 mg/kg oral), 4770 µM·h. This compound also came in with a CL in [4] (L-dC 10 mg/kg IV) of 24 mL/min/kg. Also, the Tmax in data set [4] (L-dC 10 mg/kg IV) came to 0 h; in data set [4] (L-dC 10 mg/kg oral) it was 1.0 h. In [4] (L-dC 10 mg/kg IV), this compound registered a Vd of 2.53 L/kg. Further, the t1/2 in data set [4] (L-dC 10 mg/kg IV) was 1.21 h; in [4] (L-dC 10 mg/kg oral) it was 2.52 h. For the same compound, the “oral bioavailability F” value in [4] (L-dC 10 mg/kg oral vs IV) is listed as 15.4%. Further, in [5], the chromosomal aberrations entry is listed as “no evidence of chromosomal aberrations”. This compound also yielded an EC50 in [6] above 100 µg/mL. For the same compound, the micronucleus assay result in data set [8] was “negative; also recorded: not clastogenic”.

By Tmax is commonly meant the time at which the peak concentration occurs. The Vd is the apparent volume that relates the amount in the body to the concentration in plasma or blood. Broadly, the EC50 is the concentration giving half of the maximal effect. Higher therefore signals lower potency in that assay.

The values are drawn from US7585851B2, “3′-prodrugs of 2′-deoxy-β-L-nucleosides” (priority 2000, dated 2009).
